This note sets out measurements from US9827219B2, “Compositions and methods for lowering levels of high-sensitivity C-reactive protein (HS-CRP) in a subject” (priority 2012, dated 2017).

Each structure is given as a SMILES string.

Holding throughout (type): in vivo, human
The test system of experiment [1] is TG, LDL-C, non-HDL-C, VLDL-C, Lp-PLA2, Apo B, TC, HDL-C, VLDL-TG, hs-CRP, oxLDL, RLP-C. The experiment in a line: Lipid and inflammatory parameters in statin-treated patients with diabetes mellitus-2, all endpoints (Example 2). Conditions: for Each evaluated endpoint (TG, LDL-C, non-HDL-C, VLDL-C, Lp-PLA2, Apo B, TC, HDL-C, VLDL-TG, hs-CRP, oxLDL, RLP-C), adjusted for placebo: twelve weeks, diabetes mellitus-2, FIG. 1. The text has this:
(§1) Parameters (a)-(y) can be measured in accordance with any clinically acceptable methodology. For example, triglycerides, total cholesterol, HDL-C and fasting blood sugar can be sample from serum and analyzed using standard photometry techniques. VLDL-TG, LDL-C and VLDL-C can be calculated or determined using serum lipoprotein fractionation by preparative ultracentrifugation and subsequent quantitative analysis by refractometry or by analytic ultracentrifugal methodology. Apo A1, Apo B and hsCRP can be determined from serum using standard nephelometry techniques. Lipoprotein (a) can be determined from serum using standard turbidimetric immunoassay techniques. LDL particle number and particle size can be determined using nuclear magnetic resonance (NMR) spectrometry. Remnants lipoproteins and LDL-phospholipase A2 can be determined from EDTA plasma or serum and serum, respectively, using enzymatic immunoseparation techniques. Oxidized LDL, intercellular adhesion molecule-1 and interleukin-2 levels can be determined from serum using standard enzyme immunoassay techniques. These techniques are described in detail in standard textbooks, for example Tietz Fundamentals of Clinical Chemistry, 6th Ed. (Burtis, Ashwood and Borter Eds.), WB Saunders Company.
(§2) The effect of >96% E-EPA on lipid and inflammatory parameters was evaluated in patients with fasting triglyceride levels ≧150 mg/dl and <499 mg/dl on concomitant statin therapy. Patients with diabetes mellitus-2 were randomized and treated with either 2 g/day >96% E-EPA, 4 g/day >96%, or placebo for twelve weeks. At the end of the treatment period, several diabetes efficacy endpoints were evaluated including, TG, LDL-C, non-HDL-C, VLDL-C, Lp-PLA2, Apo B, TC, HDL-C, VLDL-TG, hs-CRP, oxLDL, and RLP-C.

Experiment [2] deals with LDL-C. The experiment in a line: LDL-C in patients with diabetes mellitus-2 (Example 2). Conditions: 4 g/day; for Median placebo-adjusted percent change in LDL-C from baseline to study end: 12 weeks, on statin.
Text: as §1, §2

Experiment [3] has as its system IL-6. The experiment is described as follows: ANCHOR study, IL-6. As to conditions: ANCHOR ITT, week 12. How it is done: A multi-center, placebo-controlled, randomized, double-blind, 12-week study was performed to evaluate the efficacy and safety of >96% E-EPA in patients with fasting triglyceride levels ≧200 mg/dl and <500 mg/dl despite statin therapy (the mean of two qualifying entry values needed to be ≧185 mg/dl and at least one of the values needs to be ≧200 mg/dl). The primary objective of the study was to determine the efficacy of >96% E-EPA 2 g daily and 4 g daily, compared to placebo, in lowering fasting TG levels in patients with high risk for cardiovascular disease and with fasting TG levels ≧200 mg/dL and <500 mg/dL, despite treatment to LDL-C goal on statin therapy.
The population for this study was men and women >18 years of age with a body mass index ≦45 kg/m^2 with fasting TG levels greater than or equal to 200 mg/dl and less than 500 mg/dl and on a stable does of statin therapy (with or without ezetimibe). The statin must have been atorvostatin, rosuvastatin or simvastatin. The dose of statin must have been stable for ≧4 weeks prior to the LDL-C/TG baseline qualifying measurement for randomization. The statin dose was optimal such that the patients are at their LDL-C goal at the LDL-C/TG baseline qualifying measurements. The same statin at the same dose was continued until the study ended.
Approximately 648 patients were randomized at approximately 80 centers in the U.S. The study was a 18- to 20-week, Phase 3, multi-center study consisting of 2 study periods: (1) A 6- to 8-week screening period that included a diet and lifestyle stabilization, a non-statin lipid-altering treatment washout, and an LDL-C and TG qualifying period and (2) A 12-week, double-blind, randomized, placebo-controlled treatment period.
After confirmation of qualifying fasting LDL-C and TG values, eligible patients entered a 12-week, randomized, double-blind treatment period. At Visit 4 (Week 0), patients were randomly assigned to 1 of the following treatment groups: • >96% E-EPA 2 g daily, • >96% E-EPA 4 g daily, or • Placebo.
Approximately 216 patients per treatment group were randomized in this study. Stratification was by type of statin (atorvastatin, rosuvastatin or simvastatin), the presence of diabetes, and gender. The lower-efficacy statin regimen included administration of 5-10 mg of simvastatin per day; the medium-efficacy statin regimens included administration of 5-10 mg rosuvastatin per day, 10-20 mg of atorvastatin per day, 20-40 mg of simvastatin per day, or 10-20 mg of simvastatin and 5-10 mg of ezetimibe per day; and the higher-efficacy statin regimens included administration of 20-40 mg of rosuvastatin per day, 40-80 mg of atorvastatin per day, 80 mg of simvastatin per day, or 40-80 mg of simvastatin and 5-10 mg of ezetimibe per day. […]

As to `CC/C=C\C/C=C\C/C=C\C/C=C\C/C=C\CCCC(=O)OCC` [AMR101, all-cis eicosa-5,8,11,14,17-pentaenoic acid ethyl ester], the “Each evaluated endpoint (TG, LDL-C, non-HDL-C, VLDL-C, Lp-PLA2, Apo B, TC, HDL-C, VLDL-TG, hs-CRP, oxLDL, RLP-C), adjusted for placebo” value in experiment [1] (2 g/day) and in experiment [1] (4 g/day) was “showed a decrease” throughout. Also, the “Placebo-adjusted effects on non-HDL-C, VLDL-C, Apo B, TC, VLDL-TG, hsCRP and oxLDL, less-controlled versus well-controlled subjects” value in experiment [1] (4 g/day, Table 7 and FIG. 3) is “more pronounced effects were observed in less-controlled diabetics”. The “Median placebo-adjusted percent change in LDL-C from baseline to study end” value in experiment [2] (less-controlled diabetes (HbA1c ≧ median of 6.8%)) is −5.7%; in experiment [2] (total diabetes), −6.3%; in experiment [2] (well-controlled diabetes (HbA1c < median of 6.8%)), −6.6%. Also, in experiment [2] (twelve weeks), the “LDL-C levels between well-controlled, less-controlled and all diabetic subjects” value was “no significant decrease in LDL-C levels”. For the same compound, the “IL-6 change from baseline (median)” value was 6.9% in experiment [3] (2 g/day) and 3.1% in experiment [3] (4 g/day). Further, the “IL-6 end-of-treatment value (median)” value in experiment [3] (2 g/day) is reported as 2.7 pg/mL; in experiment [3] (4 g/day) it was 2.6 pg/mL.
